# Reference: PMC8092876, “A Leucyl-tRNA Synthetase Inhibitor with Broad-Spectrum Antimycobacterial Activity” (Antimicrobial Agents and Chemotherapy, 2021)
# Values joined by “and” are separate entries in the source; they are usually repeats but may differ in a detail not shown here. Equal entries are not always repeated. Where two headings read alike, the source gives them in different places.
# Legend:
# [1] = test system: M. abscessus Bamboo; test: MIC assay in 96-well plate format; format: cell-based, M. abscessus subsp. abscessus; details: Mycobacteroides abscessus
# [2] = test system: M. avium 11; test: MIC assay in 96-well plate format; format: cell-based, M. avium subsp. hominissuis
# [3] = test system: M. abscessus subsp. abscessus ATCC 19977; test: MIC assay in 96-well plate format; format: cell-based; details: Mycobacteroides abscessus, ATCC19977; M. abscessus subsp. abscessus ATCC 19977, culture collection reference strain
# [4] = test system: M. abscessus subsp. massiliense CCUG 48898T; test: MIC assay in 96-well plate format; format: cell-based; details: Mycobacteroides abscessus, culture collection reference strain
# [5] = test system: M. abscessus subsp. bolletii CCUG 50184T; test: MIC assay in 96-well plate format; format: cell-based; details: Mycobacteroides abscessus, culture collection reference strain
# [6] = test system: M. abscessus subsp. abscessus M9; test: MIC assay in 96-well plate format; format: cell-based; details: Mycobacteroides abscessus; M. abscessus subsp. abscessus M9, clinical isolate
# [7] = test system: M. abscessus subsp. abscessus M199; test: MIC assay in 96-well plate format; format: cell-based; details: Mycobacteroides abscessus; M. abscessus subsp. abscessus M199, clinical isolate
# [8] = test system: M. abscessus subsp. abscessus M337; test: MIC assay in 96-well plate format; format: cell-based; details: Mycobacteroides abscessus; M. abscessus subsp. abscessus M337, clinical isolate
# [9] = test system: M. abscessus subsp. abscessus M404; test: MIC assay in 96-well plate format; format: cell-based; details: Mycobacteroides abscessus; M. abscessus subsp. abscessus M404, clinical isolate
# [10] = test system: M. abscessus subsp. abscessus M422; test: MIC assay in 96-well plate format; format: cell-based; details: Mycobacteroides abscessus; M. abscessus subsp. abscessus M422, clinical isolate
# [11] = test system: M. abscessus subsp. bolletii M232; test: MIC assay in 96-well plate format; format: cell-based; details: Mycobacteroides abscessus; M. abscessus subsp. bolletii M232, clinical isolate
# [12] = test system: M. abscessus subsp. bolletii M506; test: MIC assay in 96-well plate format; format: cell-based; details: Mycobacteroides abscessus; M. abscessus subsp. bolletii M506, clinical isolate
# [13] = test system: M. abscessus subsp. massiliense M111; test: MIC assay in 96-well plate format; format: cell-based; details: Mycobacteroides abscessus; M. abscessus subsp. massiliense M111, clinical isolate
# [14] = test system: M. abscessus subsp. abscessus K21; test: MIC assay in 96-well plate format; format: cell-based; details: Mycobacteroides abscessus; M. abscessus subsp. abscessus K21, clinical isolate, infection model
# [15] = test system: M. intracellulare ATCC 13950; test: MIC assay in 96-well plate format; format: cell-based; details: Mycobacterium intracellulare, ATCC13950; M. intracellulare ATCC 13950, culture collection reference strain
# [16] = test system: M. chimaera CCUG 50989T; test: MIC assay in 96-well plate format; format: cell-based; details: CCUG50989T, culture collection reference strain
# [17] = test system: M. abscessus Bamboo biofilms; test: Biofilm growth inhibition assay (biofilm MIC and MBC); format: cell-based, M. abscessus subsp. abscessus; details: Mycobacteroides abscessus
# Method: The biofilm growth inhibition assay was performed as previously described ([40]). Innovotech MBEC 96-well biofilm assay plates (Innovotech 19111, Edmonton, AB, Canada) were used, and the supplier’s manual was followed with minor modifications. Mid-log-phase M. abscessus Bamboo precultures (OD600 = 0.4 to 0.6) were spun down at 3200 × g for 10 min at 25°C and washed with 7H9 medium without Tween 80 (7H9nt). Bacteria were resuspended into 25 ml 7H9nt to an OD600 of 0.0125 (1.0 × 10^6 CFU/ml). […] The lids with the pegs were transferred to a new MBEC multititer plate containing 150 μl of fresh 7H9nt medium per well without bacteria (0 h time point). After that, the pegs with growing biofilm were transferred once a day to a new multititer plate containing fresh 7H9nt medium. To measure growth of the biofilm formed on the peg, the pegs were washed in 200 μl of 7H9nt medium before they were aseptically removed and placed in 1.7 ml microcentrifuge tubes (VWR 87003-294, Rador, PA, United States) containing 500 μl PBS/Tween 80. The microcentrifuge tubes were vigorously vortexed at 2,000 rpm for 90 s at 25°C to detach the bacteria from the pegs before samples were serially diluted and plated for the determination of CFU/peg. […] The average drug-free biofilm growth was calculated by subtracting the average 24 h CFU/peg value from the average 72 h CFU/peg value for the untreated control pegs. The biofilm MIC was defined as the lowest drug concentration that reduced the CFU/peg by 90% relative to that of the average drug-free biofilm growth.
# [18] = test system: M. abscessus Bamboo RM1 (LeuS A428P); test: microbe, parasite or virus in culture; format: cell-based; details: Mycobacteroides abscessus
# [19] = test system: M. abscessus Bamboo RM2 (LeuS K502E); test: microbe, parasite or virus in culture; format: cell-based; details: Mycobacteroides abscessus
# [20] = test system: M. abscessus Bamboo RM3 (LeuS V417M); test: microbe, parasite or virus in culture; format: cell-based; details: Mycobacteroides abscessus, RM3, batch 1, LeuS V417M
# [21] = test system: M. abscessus Bamboo RM4 (LeuS T327R); test: microbe, parasite or virus in culture; format: cell-based; details: Mycobacteroides abscessus
# [22] = test system: M. abscessus Bamboo RM5 (LeuS V417M); test: microbe, parasite or virus in culture; format: cell-based; details: Mycobacteroides abscessus, RM5, batch 2, LeuS V417M
# [23] = test system: M. abscessus Bamboo; test: MIC and MBC determination in culture tubes (planktonic)
# Method: M. abscessus Bamboo culture was grown to mid-log-phase (OD600 = 0.4 to 0.6) and diluted to OD600 = 0.1 (1 × 10^7 CFU/ml). Aliquots of 1.2 ml of the resulting bacteria suspension were transferred into 14 ml vented, round-bottom tubes (Thermo Fisher 150268, Rochester, NY, United States). A 10-point 2-fold dilution series of the compound was prepared, starting at 100 times the desired highest concentration. The compound concentration range tested was 100 to 0.195 μM. For each drug concentration tested, 12 μl of drug stock was added to two tubes and vortexed. Aliquots of 12 μl of DMSO were added to two tubes as the untreated controls (1% final DMSO concentration). From each tube, 200 μl was transferred to wells on a 96-well plate and the OD600 was measured using a Tecan Infinite M200 plate reader (day 0 reading). The tubes (1 ml final volume) were incubated on a tilted rack at 37°C on an orbital shaker at 220 rpm. On day 2, tubes were vortexed before transferring 200 μl onto a 96-well plate to measure the OD600 again (day 2 reading). To determine the MIC, day 0 and day 2 OD600 values were analyzed as previously described for MIC determination in 96-well plate format. To determine the MBC, CFU measurement was done for the OD600 = 0.1 bacteria suspension on day 0 and for each tube on day 2. Specifically, serial 10-fold dilutions were prepared in phosphate-buffered saline (Thermo Fisher 10010023) containing 0.025% Tween 80 (PBS/Tween 80) and plated on 7H10 agar. The MBC was defined as the lowest concentration of drug that reduced the CFU/ml value by 10-fold relative to the day 0 CFU/ml value.
# [24] = test system: M. tuberculosis H37Rv ATCC 27294; parameters: method as in PMID 28953378; details: 7H9; cited from earlier work
# [25] = test system: M. tuberculosis H37Rv ATCC 27294; test: MIC assay in 96-well plate format; format: cell-based; details: Mycobacterium tuberculosis, 168 h
structure (smiles),measurement,setting,value
"CC[C@H]1OC(=O)[C@H](C)[C@@H](O[C@H]2C[C@@](C)(OC)[C@@H](O)[C@H](C)O2)[C@H](C)[C@@H](O[C@@H]2O[C@H](C)C[C@H](N(C)C)[C@H]2O)[C@](C)(OC)C[C@@H](C)C(=O)[C@H](C)[C@@H](O)[C@]1(C)O [CLR, clarithromycin, reference compound]",MIC,[1],0.31 µM
same,MIC,"[1]; 72 h, M. abscessus Bamboo, 7H9, 3 days, read-out: MIC",0.23 µM
same,MIC,"[1]; 72 h, M. abscessus Bamboo, CAMH broth, 3 days, read-out: MIC",0.07 µM
same,MIC,"[2]; Mycobacterium avium, 96 h, M. avium 11, 7H9, 4 days, read-out: MIC",0.3 µM
same,MIC,[3],0.9 µM
same,MIC,[4],0.19 µM
same,MIC,[5],2.5 µM
same,MIC,[6],0.73 µM
same,MIC,[7],2.7 µM
same,MIC,[8],0.9 µM
same,MIC,[9],0.2 µM
same,MIC,[10],0.65 µM
same,MIC,[11],0.95 µM
same,MIC,[12],0.28 µM
same,MIC,[13],0.24 µM
same,MIC,[14],0.4 µM
same,MIC,[15],0.15 µM
same,MIC,[16],0.19 µM
same,MBC,[17]; 10-fold CFU/peg reduction vs 24 h,> 100 µM
same,MIC,"[17]; 48 h with drug, 90% reduction of CFU/peg growth",1.6 µM
same,MIC,[18],0.36 µM
same,MIC,[19],0.38 µM
same,MIC,[20],0.43 µM
same,MIC,[21],0.42 µM
same,MIC,[22],0.46 µM
same,MBC,[23]; Mycobacteroides abscessus,> 100 µM
same,MIC,"[23]; Mycobacteroides abscessus, 48 h",0.28 µM
same,MBC,"[23]; planktonic M. abscessus Bamboo in culture tubes, day 2, 10-fold CFU/ml reduction vs day 0",>100 µM
"NC[C@H]1OB(O)c2c(OCCO)ccc(Cl)c21 [GSK656, (S)-3-(aminomethyl)-4-chloro-7–(2-hydroxyethoxy)benzo[c][1,2]oxaborol-1(3H)-ol]",MIC,"[1]; 72 h, read-out: MIC",0.27 µM
same,MIC,"[2]; Mycobacterium avium, 11, 96 h",> 50 µM
same,MIC,[24],0.08 μM and 0.08^d μM
"CO[C@H]1/C=C/O[C@@]2(C)Oc3c(C)c(O)c4c(O)c(c(/C=N/N5CCN(C)CC5)c(O)c4c3C2=O)NC(=O)/C(C)=C\C=C\[C@H](C)[C@H](O)[C@@H](C)[C@@H](O)[C@@H](C)[C@H](OC(C)=O)[C@@H]1C [rifampin, reference compound]",MIC,[25],0.66 µM
